{
  "source": "the supplement of paper PMC10733146",
  "assay_in_all_cases": "viability relative to DMSO control (fraction); higher = less drug effect (more viable cells)",
  "settings_in_all_cases": "48 h",
  "key": {"[1]": {"test_system": "primary ALL patient cells (S048)", "procedure,_shortened": "(§1)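 Viability is given as CellTiter-Glo luminescence relative to the median of 16 inner DMSO wells. Fresh or cryopreserved primary mononuclear tumour cells from blood, bone marrow (both Ficoll-isolated) or processed lymph node were plated at 4 × 10^4 cells per well in 384-well plates against five pre-plated compound concentrations, one well each. Incubation lasted 48 h at 37 °C and 5% CO2 in RPMI-1640 with penicillin/streptomycin, L-glutamine and human serum.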"}, "[2]": {"test_system": "primary FL patient cells (S022)", "procedure,_shortened": "as §1"}, "[3]": {"test_system": "primary AML patient cells (S081)", "procedure,_shortened": "as §1"}, "[4]": {"test_system": "primary DLBCL patient cells (S049)", "procedure,_shortened": "as §1"}, "[5]": {"test_system": "primary AML patient cells (S019)", "procedure,_shortened": "as §1"}, "[6]": {"test_system": "primary AML patient cells (S011)", "procedure,_shortened": "as §1"}, "[7]": {"test_system": "primary T-PLL patient cells (S008)", "procedure,_shortened": "as §1"}, "[8]": {"test_system": "primary AML patient cells (S091)", "procedure,_shortened": "as §1"}, "[9]": {"test_system": "primary AML patient cells (S089)", "procedure,_shortened": "as §1"}, "[10]": {"test_system": "primary AML patient cells (S021)", "procedure,_shortened": "as §1"}, "[11]": {"test_system": "primary AML patient cells (S002)", "procedure,_shortened": "as §1"}, "[12]": {"test_system": "primary AML patient cells (S025)", "procedure,_shortened": "as §1"}, "[13]": {"test_system": "primary MCL patient cells (S068)", "procedure,_shortened": "as §1"}, "[14]": {"test_system": "primary T-NHL patient cells (S058)", "procedure,_shortened": "as §1"}, "[15]": {"test_system": "primary AML patient cells (S055)", "procedure,_shortened": "as §1"}, "[16]": {"test_system": "primary AML patient cells (S037)", "procedure,_shortened": "as §1"}, "[17]": {"test_system": "primary DLBCL patient cells (S076)", "procedure,_shortened": "as §1"}},
  "data": [
    {"smiles": "O=C(c1cc(Cc2n[nH]c(=O)c3ccccc23)ccc1F)N1CCN(C(=O)C2CC2)CC1", "note": "[Olaparib]", "values": [
      {"measurement": "viability", "setting": "[1]; 0.024 µM", "value": 0.685},
      {"measurement": "viability", "setting": "[1]; 0.12 µM", "value": 0.799},
      {"measurement": "viability", "setting": "[1]; 0.6 µM", "value": 0.786},
      {"measurement": "viability", "setting": "[1]; 3 µM", "value": 0.771},
      {"measurement": "viability", "setting": "[1]; 15 µM", "value": 0.7},
      {"measurement": "viability", "setting": "[2]; 0.024 µM", "value": 0.828},
      {"measurement": "viability", "setting": "[2]; 0.12 µM", "value": 1.07},
      {"measurement": "viability", "setting": "[2]; 0.6 µM", "value": 0.937},
      {"measurement": "viability", "setting": "[2]; 3 µM", "value": 0.866},
      {"measurement": "viability", "setting": "[2]; 15 µM", "value": 0.875},
      {"measurement": "viability", "setting": "[3]; 0.024 µM", "value": 0.818},
      {"measurement": "viability", "setting": "[3]; 0.12 µM", "value": 0.858},
      {"measurement": "viability", "setting": "[3]; 0.6 µM", "value": 0.889},
      {"measurement": "viability", "setting": "[3]; 3 µM", "value": 0.884},
      {"measurement": "viability", "setting": "[3]; 15 µM", "value": 0.894},
      {"measurement": "viability", "setting": "[4]; 0.024 µM", "value": 0.857},
      {"measurement": "viability", "setting": "[4]; 0.12 µM", "value": 0.937},
      {"measurement": "viability", "setting": "[4]; 0.6 µM", "value": 0.92},
      {"measurement": "viability", "setting": "[4]; 3 µM", "value": 0.894},
      {"measurement": "viability", "setting": "[4]; 15 µM", "value": 0.735},
      {"measurement": "viability", "setting": "[5]; 0.024 µM", "value": 0.851},
      {"measurement": "viability", "setting": "[5]; 0.12 µM", "value": 0.939},
      {"measurement": "viability", "setting": "[5]; 0.6 µM", "value": 0.91},
      {"measurement": "viability", "setting": "[5]; 3 µM", "value": 0.889},
      {"measurement": "viability", "setting": "[5]; 15 µM", "value": 0.893},
      {"measurement": "viability", "setting": "[6]; 0.024 µM", "value": 0.832},
      {"measurement": "viability", "setting": "[6]; 0.12 µM", "value": 0.871},
      {"measurement": "viability", "setting": "[6]; 0.6 µM", "value": 0.873},
      {"measurement": "viability", "setting": "[6]; 3 µM", "value": 0.799},
      {"measurement": "viability", "setting": "[6]; 15 µM", "value": 0.603},
      {"measurement": "viability", "setting": "[7]; 0.024 µM", "value": 0.945},
      {"measurement": "viability", "setting": "[7]; 0.12 µM", "value": 0.962},
      {"measurement": "viability", "setting": "[7]; 0.6 µM", "value": 0.957},
      {"measurement": "viability", "setting": "[7]; 3 µM", "value": 0.978},
      {"measurement": "viability", "setting": "[7]; 15 µM", "value": 0.94},
      {"measurement": "viability", "setting": "[8]; 0.024 µM", "value": 0.857},
      {"measurement": "viability", "setting": "[8]; 0.12 µM", "value": 0.796},
      {"measurement": "viability", "setting": "[8]; 0.6 µM", "value": 0.883},
      {"measurement": "viability", "setting": "[8]; 3 µM", "value": 0.862},
      {"measurement": "viability", "setting": "[8]; 15 µM", "value": 0.691},
      {"measurement": "viability", "setting": "[9]; 0.024 µM", "value": 0.959},
      {"measurement": "viability", "setting": "[9]; 0.12 µM", "value": 0.82},
      {"measurement": "viability", "setting": "[9]; 0.6 µM", "value": 0.883},
      {"measurement": "viability", "setting": "[9]; 3 µM", "value": 0.63},
      {"measurement": "viability", "setting": "[9]; 15 µM", "value": 0.814},
      {"measurement": "viability", "setting": "[10]; 0.024 µM", "value": 0.878},
      {"measurement": "viability", "setting": "[10]; 0.12 µM", "value": 0.846},
      {"measurement": "viability", "setting": "[10]; 0.6 µM", "value": 0.895},
      {"measurement": "viability", "setting": "[10]; 3 µM", "value": 0.938},
      {"measurement": "viability", "setting": "[10]; 15 µM", "value": 0.797},
      {"measurement": "viability", "setting": "[11]; 0.024 µM", "value": 0.804},
      {"measurement": "viability", "setting": "[11]; 0.12 µM", "value": 1.05},
      {"measurement": "viability", "setting": "[11]; 0.6 µM", "value": 0.935},
      {"measurement": "viability", "setting": "[11]; 3 µM", "value": 0.804},
      {"measurement": "viability", "setting": "[11]; 15 µM", "value": 0.748},
      {"measurement": "viability", "setting": "[12]; 0.024 µM", "value": 0.995},
      {"measurement": "viability", "setting": "[12]; 0.12 µM", "value": 0.973},
      {"measurement": "viability", "setting": "[12]; 0.6 µM", "value": 0.95},
      {"measurement": "viability", "setting": "[12]; 3 µM", "value": 1.01},
      {"measurement": "viability", "setting": "[12]; 15 µM", "value": 0.861},
      {"measurement": "viability", "setting": "[13]; 0.024 µM", "value": 0.896},
      {"measurement": "viability", "setting": "[13]; 0.12 µM", "value": 0.838},
      {"measurement": "viability", "setting": "[13]; 0.6 µM", "value": 0.714},
      {"measurement": "viability", "setting": "[13]; 3 µM", "value": 0.78},
      {"measurement": "viability", "setting": "[13]; 15 µM", "value": 0.585},
      {"measurement": "viability", "setting": "[14]; 0.024 µM", "value": 1.09},
      {"measurement": "viability", "setting": "[14]; 0.12 µM", "value": 1.11},
      {"measurement": "viability", "setting": "[14]; 0.6 µM", "value": 1.18},
      {"measurement": "viability", "setting": "[14]; 3 µM", "value": 1.13},
      {"measurement": "viability", "setting": "[14]; 15 µM", "value": 0.999},
      {"measurement": "viability", "setting": "[15]; 0.024 µM", "value": 0.937},
      {"measurement": "viability", "setting": "[15]; 0.12 µM", "value": 0.899},
      {"measurement": "viability", "setting": "[15]; 0.6 µM", "value": 0.91},
      {"measurement": "viability", "setting": "[15]; 3 µM", "value": 0.965},
      {"measurement": "viability", "setting": "[15]; 15 µM", "value": 0.919},
      {"measurement": "viability", "setting": "[16]; 0.024 µM", "value": 0.853},
      {"measurement": "viability", "setting": "[16]; 0.12 µM", "value": 0.895},
      {"measurement": "viability", "setting": "[16]; 0.6 µM", "value": 0.915},
      {"measurement": "viability", "setting": "[16]; 3 µM", "value": 0.859},
      {"measurement": "viability", "setting": "[16]; 15 µM", "value": 0.776},
      {"measurement": "viability", "setting": "[17]; 0.024 µM", "value": 0.91},
      {"measurement": "viability", "setting": "[17]; 0.12 µM", "value": 1.05},
      {"measurement": "viability", "setting": "[17]; 0.6 µM", "value": 1.12},
      {"measurement": "viability", "setting": "[17]; 3 µM", "value": 1},
      {"measurement": "viability", "setting": "[17]; 15 µM", "value": 0.955}
    ]}
  ]
}
